Laboratory results taken from ChEMBL document CHEMBL1201862, “PubChem BioAssay data set” (2004).
Where “and” joins values, the source holds several entries; their conditions need not be identical. Identical values can stand only once.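 1) Cells in 96-well plates. 2) Compound, 48 h, 5 concentrations. 3) Linear interpolation between surrounding doses. 4) Unreached endpoint = highest concentration. GI50 marks 50% less growth.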 Calls of active or inactive are those of the source. Cut-off read from the data, not from the text of the source: active = GI50 up to about 1.1 µM and inactive = higher.

Experiments:
Experiment in all cases: NCI anticancer screen, dose series, 48 h
SNB-75 = system: SNB-75
MDA-MB-435 = system: MDA-MB-435
RPMI-8226 = system: RPMI-8226
NCI-H23 = system: NCI-H23
UO-31 = system: UO-31
RXF 393 = system: RXF 393
SNB-19 = system: SNB-19
DU-145 = system: DU-145
SF-539 = system: SF-539
ACHN = system: ACHN
Malme-3M = system: Malme-3M
PC-3 = system: PC-3
OVCAR-4 = system: OVCAR-4
MDA-N = system: MDA-N
COLO 205 = system: COLO 205
SF-268 = system: SF-268
786-0 = system: 786-0
CCRF-CEM = system: CCRF-CEM
TK-10 = system: TK-10
HL-60 = system: HL-60

SMILES	GI50 (SNB-75)	GI50 (MDA-MB-435)	GI50 (RPMI-8226)	GI50 (NCI-H23)	GI50 (UO-31)	GI50 (RXF 393)	GI50 (SNB-19)	GI50 (DU-145)	GI50 (SF-539)	GI50 (ACHN)	GI50 (Malme-3M)	GI50 (PC-3)	GI50 (OVCAR-4)	GI50 (MDA-N)	GI50 (COLO 205)	GI50 (SF-268)	GI50 (786-0)	GI50 (CCRF-CEM)	GI50 (TK-10)	GI50 (HL-60)
CN(C)Cc1cc(C(C)(C)C)cc(CN(C)C)c1O	> 100 µM (inactive)	> 100 µM (inactive)	> 100 µM (inactive)	> 100 µM (inactive)	21.3 µM (inactive)	> 100 µM (inactive)	> 100 µM (inactive)	83.8 µM (inactive)	86.7 µM (inactive)	65.3 µM (inactive)	> 100 µM (inactive)	77.8 µM (inactive)	> 100 µM (inactive)	> 100 µM (inactive)	35.8 µM (inactive)	79.3 µM (inactive)	60.1 µM (inactive)	21.4 µM (inactive)	67.3 µM (inactive)	–
Nn1c(CCCCCCCCc2nnc(COc3ccc(Cl)cc3Cl)n2N)nnc1COc1ccc(Cl)cc1Cl	> 10 µM (inactive)	48.3 µM (inactive)	21.6 µM (inactive)	38 µM (inactive)	47.1 µM (inactive)	38.5 µM (inactive)	30.9 µM (inactive)	42.9 µM (inactive)	–	44.9 µM (inactive)	6.71 µM (inactive)	31 µM (inactive)	46.5 µM (inactive)	62.5 µM (inactive)	25.8 µM (inactive)	33 µM (inactive)	63.5 µM (inactive)	–	89.9 µM (inactive)	–
COc1cc2c(cc1OC)C1Cc3cc(OC)c(OC)cc3C(C2)N1C	> 100 µM (inactive)	> 75 µM (inactive)	–	> 100 µM (inactive) and 54.7 µM (inactive)	–	> 75 µM (inactive)	> 100 µM (inactive)	> 75 µM (inactive)	20.8 µM (inactive)	> 100 µM (inactive)	> 75 µM (inactive)	> 75 µM (inactive)	> 100 µM (inactive)	63.1 µM (inactive)	> 75 µM (inactive)	> 100 µM (inactive)	> 75 µM (inactive)	–	–	14.9 µM (inactive)
Brc1ccc2c(c1)C1=C(CO2)Cc2ccccc2O1	22 µM (inactive)	16.9 µM (inactive)	18.2 µM (inactive)	16.3 µM (inactive)	16.5 µM (inactive)	–	–	21.5 µM (inactive)	18.6 µM (inactive)	19.2 µM (inactive)	20.7 µM (inactive)	17.1 µM (inactive)	16.8 µM (inactive)	13.2 µM (inactive)	17.4 µM (inactive)	19.1 µM (inactive)	22.7 µM (inactive)	39.4 µM (inactive)	20.4 µM (inactive)	–
COC(=O)c1c(C)cccc1CC1Cc2c(C)cccc2C1=O (stereo not given)	29.7 µM (inactive)	21.7 µM (inactive)	–	25.8 µM (inactive)	16.9 µM (inactive)	27.9 µM (inactive)	48.3 µM (inactive)	60.1 µM (inactive)	40.8 µM (inactive)	35.7 µM (inactive)	21.6 µM (inactive)	34.4 µM (inactive)	32.8 µM (inactive)	30.3 µM (inactive)	21.2 µM (inactive)	31 µM (inactive)	32.4 µM (inactive)	23 µM (inactive)	35.2 µM (inactive)	16.9 µM (inactive)
O/N=C1\C=Cc2nn(-c3ccccc3)nc2\C1=N/O	15.6 µM (inactive)	2.74 µM (inactive)	3.71 µM (inactive)	3.77 µM (inactive)	3.15 µM (inactive)	–	5.5 µM (inactive)	1.07 µM (active)	4.22 µM (inactive)	2.3 µM (inactive)	17.7 µM (inactive)	3.25 µM (inactive)	5.36 µM (inactive)	7.96 µM (inactive)	3.7 µM (inactive)	4.27 µM (inactive)	6.11 µM (inactive)	2.42 µM (inactive)	17.8 µM (inactive)	2.03 µM (inactive)
C/C=C\C(CC(=O)O)CN1CCC2=C(C1)C(S(=O)(=O)C(F)(F)F)c1ccccc12 (stereo not given)	> 100 µM (inactive)	> 100 µM (inactive)	> 100 µM (inactive)	> 100 µM (inactive)	> 100 µM (inactive)	> 100 µM (inactive)	> 100 µM (inactive)	> 100 µM (inactive)	–	> 100 µM (inactive)	> 100 µM (inactive)	> 100 µM (inactive)	> 100 µM (inactive)	> 100 µM (inactive)	> 100 µM (inactive)	> 100 µM (inactive)	> 100 µM (inactive)	> 10 µM (inactive)	–	–
Cc1ccc(-n2cc(-c3ccc(Cl)cc3)c3c2N=CN2N=C(c4ccco4)NC32)cc1 (stereo not given)	4.75 µM (inactive)	30.8 µM (inactive)	–	19.7 µM (inactive)	5.05 µM (inactive)	11.2 µM (inactive)	14.3 µM (inactive)	> 100 µM (inactive)	15.2 µM (inactive)	4.24 µM (inactive)	31.3 µM (inactive)	12.8 µM (inactive)	1.93 µM (inactive)	19.5 µM (inactive)	9.18 µM (inactive)	15.3 µM (inactive)	4.67 µM (inactive)	21 µM (inactive)	7.5 µM (inactive)	> 100 µM (inactive)
COc1cc(NCc2ccc3nc(OC)c(OC)nc3c2)cc(OC)c1OC	54.8 µM (inactive)	> 100 µM (inactive)	–	> 100 µM (inactive)	> 100 µM (inactive)	> 100 µM (inactive)	> 100 µM (inactive)	> 100 µM (inactive)	> 100 µM (inactive)	> 100 µM (inactive)	> 100 µM (inactive)	89.1 µM (inactive)	> 100 µM (inactive)	> 100 µM (inactive)	> 100 µM (inactive)	> 100 µM (inactive)	> 100 µM (inactive)	83.9 µM (inactive)	–	> 100 µM (inactive)
COc1cc2c[n+](C)c3c4ccccc4ccc3c2cc1OC	5.89 µM (inactive)	3.83 µM (inactive)	3.05 µM (inactive)	2.6 µM (inactive)	> 75.5 µM (inactive)	14.6 µM (inactive)	2.44 µM (inactive)	3.8 µM (inactive)	6.17 µM (inactive)	35.9 µM (inactive)	1.55 µM (inactive)	4.89 µM (inactive)	9.4 µM (inactive)	4.45 µM (inactive)	0.991 µM (active)	0.224 µM (active)	8.65 µM (inactive)	6.5 µM (inactive)	26.7 µM (inactive)	–
COc1ccc(-c2nc(-c3ccc(OC)cc3)n(-c3ccccc3)n2)cc1	> 100 µM (inactive)	> 100 µM (inactive)	–	39.4 µM (inactive)	21.6 µM (inactive)	32.8 µM (inactive)	57.8 µM (inactive)	> 100 µM (inactive)	> 100 µM (inactive)	> 100 µM (inactive)	–	> 100 µM (inactive)	31.7 µM (inactive)	> 100 µM (inactive)	46.9 µM (inactive)	> 100 µM (inactive)	> 100 µM (inactive)	> 100 µM (inactive)	> 100 µM (inactive)	30.5 µM (inactive)
CC(=O)Oc1ccccc1-c1cc2ccccc2oc1=O	32.8 µM (inactive)	> 100 µM (inactive)	> 100 µM (inactive)	83.8 µM (inactive)	46.8 µM (inactive)	–	> 100 µM (inactive)	> 100 µM (inactive)	> 100 µM (inactive)	> 100 µM (inactive)	> 100 µM (inactive)	> 100 µM (inactive)	–	> 100 µM (inactive)	> 100 µM (inactive)	> 100 µM (inactive)	> 100 µM (inactive)	> 100 µM (inactive)	–	> 100 µM (inactive)
C=C1CC(Cn2cc(Br)c(=O)[nH]c2=O)(c2ccc(-c3ccccc3)cc2)OC1=O (stereo not given)	4.49 µM (inactive)	1.35 µM (inactive)	0.128 µM (active)	0.993 µM (active)	2.03 µM (inactive)	–	12.6 µM (inactive)	1.66 µM (inactive)	1.37 µM (inactive)	1.83 µM (inactive)	1.56 µM (inactive)	1.55 µM (inactive)	2.13 µM (inactive)	0.83 µM (active)	0.621 µM (active)	2.02 µM (inactive)	1.02 µM (active)	0.165 µM (active)	0.432 µM (active)	0.0975 µM (active)
O=C1NC(=O)[C@@]2(CC[C@@H](O)C2)c2ccncc21 [SESBANINE]	> 100 µM (inactive)	> 100 µM (inactive)	–	> 100 µM (inactive)	> 100 µM (inactive)	> 100 µM (inactive)	> 100 µM (inactive)	> 100 µM (inactive)	> 100 µM (inactive)	> 100 µM (inactive)	> 100 µM (inactive)	> 100 µM (inactive)	> 100 µM (inactive)	> 100 µM (inactive)	> 100 µM (inactive)	> 100 µM (inactive)	> 100 µM (inactive)	> 100 µM (inactive)	> 100 µM (inactive)	> 100 µM (inactive)
